The values below come from patent US11566017B2, “Dihydroquinazolinone compound or pharmacologically acceptable salt, and cell growth inhibitor” (RIKEN, priority 2017, dated 2023).

Each structure is given as a SMILES string.

One test addresses T1, tankyrase 2 (TNKS2) (Homo sapiens, UniProt Q9H2K2).
T1 construct: tankyrase 2 (613-1,116aa, ANK5+SAM+PARP); made in house; host or cells: cell-free protein expression system
The experiment in a line: Tankyrase inhibitory activity test (ELISA, auto-poly(ADP-ribosyl)ation), tankyrase 2. It counts as biochemical. The conditions noted are these: Flag tagged tankyrase 2 (613-1,116aa, ANK5+SAM+PARP); read-out: TNKS2 (inhibitory activity against tankyrase 2, IC50). In outline:
(§1)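 Cell-free-expressed Flag-tagged TNKS1 (1,024-1,327aa, SAM+PARP) or TNKS2 (613-1,116aa, ANK5+SAM+PARP) was captured on anti-FLAG plates and pre-incubated 10 min at RT with compound (pH 8.0, MgCl2, DTT). Auto-PARylation was started with NAD solution (225 μM NAD, 25 μM biotin-NAD), 45 min at 30 °C. Detection by HRP-streptavidin chemiluminescence; IC50 from residual activity.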
Background: In an ELISA, binding on a coated surface is turned into a signal by an enzyme label.

Test [1] concerns human colorectal cancer cell line COLO-320DM. In words: Cell proliferation inhibitory activity test (Celltiter-Glo). The test is classed as cell-based. The conditions noted are these: COLO-320DM cells, 96 hours. Background: ATP-based viability assays read luminescence as a measure of living cells.
For test [2], the system named is tubulin (microtubule polymerization). In words: Microtubule polymerization inhibition test (fluorescence kit BK011P). It counts as biochemical. As to conditions: 60 min. How it is done: Using a microtubule polymerization reaction measurement kit (Cytoskeleton Inc.; BK011P), the microtubule polymerization inhibitory activity of the compound (test compound) prepared in each of Examples was evaluated on the basis of the standard protocol of the kit. Solutions with concentrations of 30 μM and 150 μM were prepared by dissolving the test compound in DMSO, and used as test compound solutions (with final concentrations of 3 μM and 15 μM, respectively). DMSO was used as a negative control solution, and vincristine (final concentration: 3 μM) was used as a positive control solution.
5 μL of the test compound solution or each control solution, and 50 μL of a microtubule-containing reaction mixture (1×Buffer 1; 1 mM GTP; 15% glycerol; and tubulin with a concentration of 2 mg/mL) were added to a 96-well plate (Corning Costar Company; #3686) warmed to 37° C., and a change in fluorescence of the reaction solution was measured over 1 hour. A higher fluorescence intensity means a higher degree of progression of polymerization of microtubules. The composition of Buffer 1 and the fluorescence measurement conditions employed in the analysis are shown below.
80 mM Piperazine-N,N′-bis[2-ethanesulfonic acid] sequisodium salt; 2.0 mM Magnesium chloride; 0.5 mM Ethylene glycol-bis (β-amino-ethyl ether)N,N,N′,N′-tetra-acetic acid; 10 μM fluorescent reporter
Measurement wavelength: 360 nm (excitation wavelength) and 450 nm (emission wavelength)
Measurement time: 60 min (1 cycle/min)
Equipment used: Microplatereader SpectraMax M2 (Molecular Devices Company)

Another test concerns the target T2, tankyrase 1 (TNKS1) (Homo sapiens, UniProt O95271).
T2 construct: tankyrase 1 (1,024-1,327aa, SAM+PARP); made in house; host or cells: cell-free protein expression system
In words: Tankyrase inhibitory activity test (ELISA, auto-poly(ADP-ribosyl)ation), tankyrase 1. The test is classed as biochemical. As to conditions: Flag tagged tankyrase 1 (1,024-1,327aa, SAM+PARP); read-out: TNKS1 (inhibitory activity against tankyrase 1, IC50). The gist of the method:
as §1

Where [3] appears, read: racemates, 3 μM (FIG. 1A) and 15 μM (FIG. 1B).

T2 sequence (O95271 1024-1327): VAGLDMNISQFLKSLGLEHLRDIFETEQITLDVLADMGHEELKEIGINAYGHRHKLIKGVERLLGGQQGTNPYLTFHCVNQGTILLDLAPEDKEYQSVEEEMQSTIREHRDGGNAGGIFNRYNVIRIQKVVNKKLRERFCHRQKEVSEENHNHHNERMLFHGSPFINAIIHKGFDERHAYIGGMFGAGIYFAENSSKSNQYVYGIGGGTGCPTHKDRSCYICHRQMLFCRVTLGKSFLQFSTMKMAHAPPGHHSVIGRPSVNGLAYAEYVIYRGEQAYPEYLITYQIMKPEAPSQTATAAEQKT

Usually IC50 stands for the midpoint of a concentration-inhibition curve. Broadly, the GI50 is the concentration that inhibits growth by half. In the case of `COc1ccc(-c2n[nH]nc2C2NC(=O)c3cccc(C)c3N2)cc1` (racemic) [Example 65, 2-[5-(4-Methoxyphenyl)-2H-1,2,3-triazol-4-yl]-8-methyl-2,3-dihydro-1H-quinazolin-4-one], the IC50 at tankyrase 2 (TNKS2) was less than 5 nM; on tankyrase 1 (TNKS1) it was 5 to 20 nM. The GI50 in test [1] was less than 1000 nM. For the same compound, the “microtubule polymerization: increase in fluorescence intensity” value in test [2] (setting [3]) is listed as “slower increase in fluorescence intensity as compared to the DMSO control”.
The corresponding values for `COc1ccc(-c2n[nH]nc2C2NC(=O)c3cccc4c3N2CC4)cc1` (racemic) [Example 69, 11-[5-(4-Methoxyphenyl)-2H-1,2,3-triazol-4-yl]-1,10-diazatricyclo[6.3.1.0^4,12]dodeca-4(12),5,7-trien-9-one] are 5 to 20 nM, 5 to 20 nM, 1000 to 10000 nM and “slower increase in fluorescence intensity as compared to the DMSO control”.
The corresponding values for `CCOc1ccc(-c2n[nH]nc2C2NC(=O)c3cccc(C)c3N2)cc1` (racemic) [Example 70, 2-[5-(4-Ethoxyphenyl)-2H-1,2,3-triazol-4-yl]-8-methyl-2,3-dihydro-1H-quinazolin-4-one] are less than 5 nM, 5 to 20 nM, less than 1000 nM and “slower increase in fluorescence intensity as compared to the DMSO control”.
In the case of `Cc1cccc2c1NC(c1n[nH]nc1-c1ccc(OC(F)F)cc1)NC2=O` (stereo not shown) [Example 73, 2-[4-[4-(Difluoromethoxy)phenyl]-2H-1,2,3-triazol-5-yl]-8-methyl-2,3-dihydro-1H-quinazolin-4-one], the 50% inhibitory concentration (IC50) at tankyrase 2 (TNKS2) and at tankyrase 1 (TNKS1) was 20 to 50 nM throughout. Further, the GI50 in test [1] was no less than 10000 nM.
For the compound `CCCOc1ccc(-c2n[nH]nc2C2NC(=O)c3cccc(C)c3N2)cc1` (stereo not shown) [Example 74, 8-Methyl-2-[5-(4-propoxyphenyl)-2H-1,2,3-triazol-4-yl]-2,3-dihydro-1H-quinazolin-4-one], the IC50 at tankyrase 2 (TNKS2) and on tankyrase 1 (TNKS1) was 5 to 20 nM each time. Further, in test [1], the concentration for 50% growth inhibition (GI50) was in the range of 1000 to 10000 nM.
Regarding `CCOc1ccc(-c2n[nH]nc2C2NC(=O)c3cccc4c3N2CC4)cc1` (stereo not shown) [Example 75, 11-[5-(4-Ethoxyphenyl)-2H-1,2,3-triazol-4-yl]-1,10-diazatricyclo[6.3.1.0^4,12]dodeca-4(12),5,7-trien-9-one], the IC50 on tankyrase 2 (TNKS2) and on tankyrase 1 (TNKS1) was 5 to 20 nM in each case. The GI50 in test [1] lay within 1000 to 10000 nM.
As to `Cc1cccc2c1NC(c1n[nH]nc1-c1ccc(OC(C)C)cc1)NC2=O` (stereo not shown) [Example 76, 8-Methyl-2-[5-(4-propan-2-yloxyphenyl)-2H-1,2,3-triazol-4-yl]-2,3-dihydro-1H-quinazolin-4-one], the IC50 on tankyrase 2 (TNKS2) was in the range of 5 to 20 nM; on tankyrase 1 (TNKS1) it was 20 to 50 nM. In test [1], the 50% growth inhibitory concentration (GI50) was in the range of 1000 to 10000 nM.
In the same order, the values of `[2H]C([2H])([2H])Oc1ccc(-c2n[nH]nc2C2NC(=O)c3cccc(C)c3N2)cc1` (stereo not shown) [Example 77] are 5 to 20 nM, 5 to 20 nM and less than 1000 nM.
The corresponding values for `Cc1cccc2c1NC(c1n[nH]nc1-c1ccc(OCC(F)F)cc1)NC2=O` (stereo not shown) [Example 78, 2-[4-[4-(2,2-Difluoroethoxy)phenyl]-2H-1,2,3-triazol-5-yl]-8-methyl-2,3-dihydro-1H-quinazolin-4-one] are less than 5 nM, 5 to 20 nM and 1000 to 10000 nM.
In the same order, the values of `CCOC(=O)COc1ccc(-c2n[nH]nc2C2NC(=O)c3cccc(C)c3N2)cc1` (stereo not shown) [Example 79] are 5 to 20 nM, 5 to 20 nM and no less than 10000 nM.
Regarding `CCOc1ccc(-c2n[nH]nc2C2NC(=O)c3cccc(CC)c3N2)cc1` (stereo not shown) [Example 80, 2-[5-(4-Ethoxyphenyl)-2H-1,2,3-triazol-4-yl]-8-ethyl-2,3-dihydro-1H-quinazolin-4-one], the IC50 on tankyrase 2 (TNKS2) and at tankyrase 1 (TNKS1) was 5 to 20 nM each time. In test [1], the GI50 was less than 1000 nM.
For `CCc1cccc2c1NC(c1n[nH]nc1-c1ccc(OC)cc1)NC2=O` (stereo not shown) [Example 81, 8-Ethyl-2-[4-(4-methoxyphenyl)-2H-1,2,3-triazol-5-yl]-2,3-dihydro-1H-quinazolin-4-one], the values for the IC50 on tankyrase 2 (TNKS2) and at tankyrase 1 (TNKS1) were less than 5 nM and 5 to 20 nM, respectively. Moreover, the 50% growth inhibitory concentration (GI50) in test [1] lay in the range of 1000 to 10000 nM.
As for `COc1ccc(-c2n[nH]cc2C2NC(=O)c3ccccc3N2)cc1` (stereo not shown) [Example 82, 2-[5-(4-Methoxyphenyl)-1H-pyrazol-4-yl]-2,3-dihydro-1H-quinazolin-4-one], the IC50 at tankyrase 2 (TNKS2) and on tankyrase 1 (TNKS1) was 5 to 20 nM each time. In addition, the GI50 in test [1] was no less than 10000 nM.
For `COc1ccc(-c2n[nH]cc2C2NC(=O)c3ccccc3N2C)cc1` (stereo not shown) [Example 83, 2-[5-(4-Methoxyphenyl)-1H-pyrazol-4-yl]-1-methyl-2,3-dihydroquinazolin-4-one], the IC50 at tankyrase 2 (TNKS2) and at tankyrase 1 (TNKS1) was 5 to 20 nM each time. In addition, in test [1], the GI50 lay in the range of 1000 to 10000 nM.
Turning to `O=C1NC(c2n[nH]nc2-c2ccc(OCC(F)F)cc2)N2CCc3cccc1c32` (stereo not shown) [Example 84, 11-[5-[4-(2,2-Difluoroethoxy)phenyl]-2H-1,2,3-triazol-4-yl]-1,10-diazatricyclo[6.3.1.0^4,12]dodeca-4(12),5,7-trien-9-one], the IC50 at tankyrase 2 (TNKS2) and at tankyrase 1 (TNKS1) was 5 to 20 nM each time. Moreover, in test [1], the concentration for 50% growth inhibition (GI50) was no less than 10000 nM.
Consider `COc1ccc(-c2c[nH]nc2C2NC(=O)c3ccccc3N2)cc1` (stereo not shown) [Example 85, 2-[4-(4-Methoxyphenyl)-1H-pyrazol-3-yl]-2,3-dihydro-1H-quinazolin-4-one], for which the concentration for half-maximal inhibition (IC50) at tankyrase 2 (TNKS2) is less than 5 nM; at tankyrase 1 (TNKS1), 5 to 20 nM. For the same compound, the 50% growth inhibitory concentration (GI50) in test [1] was 1000 to 10000 nM.
The corresponding values for `COc1ccc(-c2c[nH]nc2C2NC(=O)c3ccccc3N2C)cc1` (stereo not shown) [Example 86, 2-[4-(4-Methoxyphenyl)-1H-pyrazol-3-yl]-1-methyl-2,3-dihydro-1H-quinazolin-4-one] are less than 5 nM, less than 5 nM and 1000 to 10000 nM.
On to `COc1ccc(-c2c[nH]nc2C2NC(=O)c3cccc(C)c3N2)cc1` (stereo not shown) [Example 87, 2-[4-(4-Methoxyphenyl)-1H-pyrazol-3-yl]-8-methyl-2,3-dihydro-1H-quinazolin-4-one], for which the IC50 on tankyrase 2 (TNKS2) and at tankyrase 1 (TNKS1) was less than 5 nM each time. Moreover, the GI50 in test [1] fell in the range of 1000 to 10000 nM.
For `CC[C@]1(O)C[C@H]2CN(CCc3c([nH]c4ccccc34)[C@@](C(=O)OC)(c3cc4c(cc3OC)N(C=O)[C@H]3[C@@](O)(C(=O)OC)[C@H](OC(C)=O)[C@]5(CC)C=CCN6CC[C@]43[C@@H]65)C2)C1` [vincristine, reference compound], in test [2] (positive control, final concentration 3 μM), the “microtubule polymerization: increase in fluorescence intensity” value is “slower increase in fluorescence intensity as compared to the DMSO control”.
